From patent EP4186514A1, “PHARMACEUTICAL COMPOSITION FOR PREVENTING OR TREATING CHOLANGITIS OR LIVER DISEASE CAUSED BY CHOLANGITIS COMPRISING ADENOSINE DERIVATIVE” (Future Medicine Co., Ltd., priority 2021, dated 2023)

Key:
[1] = tested on: BDL mouse model; assay: Efficacy in bile duct ligation (BDL) mouse model of cholangitis and liver disease; format: in vivo, C57BL/6 mice; settings: for Hyaluronic acid values reduced: serum ELISA, compared to BDL control group (G2)
Description: After 23 C57BL/6 mice were prepared and subjected to quarantine and acclimation, a bile duct ligation (BDL) surgery and a sham surgery were performed by dividing the animals into groups.
The BDL rodent model is one of the most commonly used methods to induce obstructive cholestatic injury (Tag, C. G et al., Bile Duct Ligation in Mice: Induction of Inflammatory Liver Injury and Fibrosis by Obstructive Cholestasis, J. Vis. Exp. (96), e52438, doi: 10.3791/52438 (2015)). The BDL model induces liver fibrosis and inflammation by causing obstructive cholestasis, and since such symptoms are generally observed in patients with PBC after stage II, the corresponding model may adequately reflect an important aspect of PBC pathology. The advantages of the BDL model are technical validity, reproducibility, and the short time it takes to reach the pathogenomonic status of human portal hypertension.
The surgery day was set to day 0, and the test material was orally administered once a day for 2 weeks from day 1 to day 14. The dose was 10 mL/kg based on the body weight measured before administration. As a test material, a compound of formula A mixed with 0.5% methylcellulose (MC), which is a vehicle, was used, and only the vehicle was used in the control.
The treatment contents of each group are summarized as in the following Table 1.
Blood was collected through the abdominal vein under respiratory anesthesia on day 14, and serum was isolated. After blood collection, liver tissue was collected and weighed, half of the left lateral lobe from the tissue was placed in a tube and immersed in liquid nitrogen, and the other half was fixed in neutral formalin. • Blood biochemical analysis: aspartate aminotransferase (AST), alanine aminotransferase (ALT), alkaline phosphatase (ALP), γ-glutamyl transpeptidase (GGT) and total bilirubin (T-BIL) were measured using a serum biochemical analyzer (Accute, Toshiba). In addition, after blood collection, the body weight was measured by collecting liver tissue. • mRNA expression: RNA was extracted using a portion of the left lateral lobe removed from the liver tissue, cDNA was synthesized using an RNase inhibitor (DR22-R10k, Solgent, Korea) and DiaStar ™ RT Kit, and qRT-PCR was performed using Power SYBR Green PCR Master Mix (Applied Biosystems by Thermo Fisher Scientific, USA).
The following Table 2 lists sequences of primers of mouse Gapdh, Acta2(actin alpha 2 chain), Col1a1(proalpha1(I) chain) and tissue inhibitor of metalloproteinases-1 (Timp1) used for qRT-PCR.
• Analysis of cytokine levels: TNF-α, IL-1β and hyaluronic acid levels in serum were measured using an ELISA kit. • Analysis of hydroxyproline: a portion of the left lateral lobe of liver tissue was extracted, and the hydroxyproline value of liver lysate was measured by a microplate reader (SpectraMax ABS Plus, Molecular Devices) using a hydroxyproline assay kit (Abcam).
The experimental results are shown as mean ± SD, and the test material-administered group was compared with the vehicle control (BDL, G2). Statistical analysis was performed using one-way ANOVA followed by Fisher's least significant difference test using GraphPad Prism (version 5.01) and SPSS (version 24) software. P < 0.05 was considered statistically significant.

[2] = tested on: rats; settings: rat, in vivo
Description: In order to test the single-dose toxicity of the compound of the formula A, a single dose of 2,000 mg/kg of the compound of the formula A was administered to each of five male rats and five female rats.

[3] = Storage stability of oral administration agent in 0.5 wt % methylcellulose (UPLC); format: physicochemical
Description: 0.5 wt % methylcellulose, which can be used as an excipient for oral administration, was added to the compound of the formula A, sonicated and homogenized, and then divided into a group to be stored at room temperature or at 4° C., and after 1, 3, 7, and 10 days, the stability was measured by comparing the concentration with 0.5% methyl cellulose as the control group using Waters UPLC and he results are shown in Table 12.

[4] = PAMPA; format: in vitro ADME
Description: (§1) In order to test the physicochemical properties of the adenosine derivative of the inventive concept, experiments were conducted on the compound of the formula A in vitro, and the results are shown in Table 3. Plasma stability and protein binding were measured using rat and human plasma.

[5] = Kinetic solubility; format: physicochemical; settings: listed as compound of the formula A
Description: as §1

[6] = Plasma stability, rat plasma; format: in vitro ADME
Description: as §1

[7] = tested on: histidine-requiring Salmonella (strains TA98, TA100, TA1535 and TA1537) and tryptophan-requiring Escherichia coli (strain WP2uvrA (pKM101)); format: cell-based
Description: In order to test the genotoxicity of the compound of the formula A, the gene mutagenicity of the compound of the formula A was evaluated in the presence and absence of metabolic activation by using histidine-requiring Salmonella (strains TA98, TA100, TA1535 and TA1537) and tryptophan-requiring Escherichia coli (strain WP2uvrA (pKM101)).

[8] = Plasma stability, human plasma; format: in vitro ADME
Description: as §1

[9] = Equilibrium solubility; format: physicochemical; settings: listed as compound of the formula A
Description: as §1

[10] = 10 mg/kg oral once a day (G3), serum day 14, compared with BDL control group (G2)

In the case of `O[C@@H]1[C@H](O)CS[C@H]1n1cnc2c(NCc3cccc(Cl)c3)nc(Cl)nc21` [Example 2, (2R,3R,4S)-2-(2-chloro-6-(3-chlorobenzylamino)-9H-purin-9-yl)tetrahydrothiophen-3,4-diol], the “content of liver hydroxyproline decreased” value ([1]; 10 mg/kg (G3), liver lysate) is reported as 39%, the “Hyaluronic acid values reduced” value ([1]; 10 mg/kg (G3)) is reported as 51% and the AAR decreased [1, 10] is reported as 21%. The ALT decreased [1, 10] was 37%, the AST decreased [1, 10] was 48% and the “Hyaluronic acid values reduced” value ([1]; 30 mg/kg (G4)) was 47%. For the same compound, the AST decreased ([1]; 30 mg/kg oral once a day (G4), serum day 14, compared with BDL control group (G2)) was 38%, the “Acta2 mRNA levels” value ([1]; liver tissue, qRT-PCR, BDL groups G3 (10 mg/kg) and G4 (30 mg/kg)) was “decreased” and the “death after single dose” value [2] was “no animals died”. The “Stability (%)” value ([3]; Stored at 4°C, After 1 day, 200 µg/ml) was 118±21.4%, the “Stability (%)” value ([3]; Stored at 4°C, After 1 day, 1000 µg/ml) was 76.5±11.7% and the “Stability (%)” value ([3]; Stored at 4°C, After 1 day, 3000 µg/ml) was 84.8±17.9%. For the same compound, the “Stability (%)” value ([3]; Stored at 4°C, After 3 days, 200 µg/ml) was 125±40.2%, the “Stability (%)” value ([3]; Stored at 4°C, After 3 days, 1000 µg/ml) was 87.6±9.26% and the “Stability (%)” value ([3]; Stored at 4°C, After 3 days, 3000 µg/ml) was 94.8±2.55%. The “Stability (%)” value ([3]; Stored at 4°C, After 7 days, 200 µg/ml) was 88.3±17.3%, the “Stability (%)” value ([3]; Stored at 4°C, After 7 days, 1000 µg/ml) was 80.1±27.7% and the “Stability (%)” value ([3]; Stored at 4°C, After 7 days, 3000 µg/ml) was 89.7±8.30%. The “Stability (%)” value ([3]; Stored at 4°C, After 10 days, 200 µg/ml) was 93.8±44.8%, the “Stability (%)” value ([3]; Stored at 4°C, After 10 days, 1000 µg/ml) was 79.5±22.0% and the “Stability (%)” value ([3]; Stored at 4°C, After 10 days, 3000 µg/ml) was 99.0±3.87%. For the same compound, the “Stability (%)” value ([3]; Stored at RT, After 1 day, 200 µg/ml) was 84.3±4.10%, the “Stability (%)” value ([3]; Stored at RT, After 1 day, 1000 µg/ml) was 82.7±16.3% and the “Stability (%)” value ([3]; Stored at RT, After 1 day, 3000 µg/ml) was 90.5±6.44%. The “Stability (%)” value ([3]; Stored at RT, After 3 days, 200 µg/ml) was 76.3±8.12%, the “Stability (%)” value ([3]; Stored at RT, After 3 days, 1000 µg/ml) was 82.7±37.0% and the “Stability (%)” value ([3]; Stored at RT, After 3 days, 3000 µg/ml) was 80.5±5.01%. The “Stability (%)” value ([3]; Stored at RT, After 7 days, 200 µg/ml) was 80.9±14.6%, the “Stability (%)” value ([3]; Stored at RT, After 7 days, 1000 µg/ml) was 75.4±6.66% and the “Stability (%)” value ([3]; Stored at RT, After 7 days, 3000 µg/ml) was 101±13.2%. For the same compound, the “Stability (%)” value ([3]; Stored at RT, After 10 days, 200 µg/ml) was 90.3±23.2%, the “Stability (%)” value ([3]; Stored at RT, After 10 days, 1000 µg/ml) was 94.2±9.17% and the “Stability (%)” value ([3]; Stored at RT, After 10 days, 3000 µg/ml) was 92.2±2.17%. The PAMPA [4] was -4.49, the Kinetic solubility [5] was 148.8 µg/mL and the Plasma stability [6] was > 99.9. The “number of back-mutant colonies versus negative control group” value ([7]; all doses of each strain, regardless of the metabolic activation) was “did not exceed twice the number of back-mutant colonies of the negative control group”, the “dose-dependent increase of back-mutant colonies” value ([7]; each strain, presence and absence of metabolic activation) was “no dose-dependent increase was observed” and the “Toxicity, Genotoxicity evaluation” value ([7]; summary Table 11) was “Not detected”. It also gave a Plasma stability [8] of 98.9 and an Equilibrium solubility [9] of 2.76 µg/mL.
